The record followed here is patent publication US9884043B2, “RORgammaT inhibitors” (Merck Sharp & Dohme Corp., priority 2011, dated 2018).

Structures are written as SMILES.

The EC50 is the concentration that produces a half-maximal response. Lower therefore signals greater potency. By pEC50 is commonly meant −log10 of the EC50, conventionally taken in molar units. In general, IC50 refers to the midpoint of a concentration-inhibition curve. Higher therefore signals weaker potency in that assay.

The first experiment has as its target T1, 6His(GST)RORgamma-LBD (Homo sapiens, UniProt P51449).
T1 construct: the applied RORgamma-LBD contains a 6-His and GST tag; GST (N); made in house; host or cells: baculovirus-infected Sf-21 insect cells
T1 sequence (P51449 269-508 limits assumed): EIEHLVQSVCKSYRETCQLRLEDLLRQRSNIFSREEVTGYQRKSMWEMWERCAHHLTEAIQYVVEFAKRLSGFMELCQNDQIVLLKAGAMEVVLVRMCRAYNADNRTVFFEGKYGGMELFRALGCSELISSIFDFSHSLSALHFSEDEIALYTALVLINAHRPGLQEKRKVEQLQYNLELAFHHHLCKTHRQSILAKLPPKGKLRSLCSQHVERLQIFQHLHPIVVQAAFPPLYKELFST
Description: TR-FRET assay (Protocol A), RORgamma-LBD / SRC1_2 co-activator peptide interaction. The format is biochemical. As to conditions: SRC1_2 peptide 0.1 μM, RORgamma-LBD 10 nM, overnight incubation at 4° C. The text has this:
Activation of RORgammaT activity can be measured using e.g. biochemical TR-FRET assay. In such an assay, interaction of cofactor-derived peptides with human RORgammaT-Ligand Binding Domain (LBD) can be measured.
To identify novel antagonists of RORgammaT, an assay was developed which employs the interaction of RORgammaT with its co-activator peptide SRC1_2. […] The assay was run following three slightly different protocols, i.e. Protocol A, Protocol B, and Protocol C, which are described below.
TR-FRET Assay (Protocol A)
The 6His(GST)RORgamma-LBD was expressed and purified from baculovirus infected Sf-21 insect cells (Bac-to-BAC, Invitrogen) and purified using glutathione sepharose chromatography (GE healthcare). Biotin and His function as anchoring points for streptavidin-allophycocyanin (Strep-APC, Perkin Elmer, C130-100) and anti-His-Europium Cryptate (Perkin Elmer, AD0111), respectively. Since energy transfer between the streptavidin and His-coupled labels APC and europium cryptate can only take place when these labels are in close proximity, measurement of energy transfer in a mixture of biotinylated peptide, His-GR-LBD, streptavidin-APC and anti-His-Europium Cryptate will be indicative for RORy-LBD/peptide binding. […] Changes in peptide binding caused by dose-curves of compounds added to the reaction mixture (DMSO concentration 0.1%), can likewise be monitored.
Consider `O=S(=O)(c1cccc(Cl)c1)n1nc(-c2ccc(-c3nnn[nH]3)cc2)c2ccccc21` [Example 20, 3-(4-(1H-tetrazol-5-yl)phenyl)-1-(3-chlorophenylsulfonyl)-1H-indazole], for which the EC50 is 3.55 µM.

The compound `COC(=O)c1sccc1S(=O)(=O)n1nc(-c2ccc(-c3nnn[nH]3)cc2)c2ccccc21` [Example 21A, methyl 3-(3-(4-(1H-tetrazol-5-yl)phenyl)-1H-indazol-1-ylsulfonyl)thiophene-2-carboxylate] had an EC50 of 0.389 µM.

Turning to `O=C(c1cccc(Cl)c1Cl)n1nc(-c2ccc(-c3nnn[nH]3)cc2)c2ccccc21` [Example 23, (3-(4-(1H-tetrazol-5-yl)phenyl)-1H-indazol-1-yl)(2,3-dichlorophenyl)methanone], it took 1.02 µM to reach a half-maximal effect (EC50). This EC50 lies about 2.6-fold higher than the previous one.

`Cc1cc(C)cc(S(=O)(=O)n2nc(-c3ccc(C(=O)O)c(C(F)(F)F)c3)c3ccccc32)c1` [Example 18, 4-(1-(3,5-dimethylphenylsulfonyl)-1H-indazol-3-yl)-2-(trifluoromethyl)benzoic acid] showed an EC50 of 3.31 µM.

Take `O=C(O)c1ccc(-c2nn(S(=O)(=O)c3ccccc3C(F)(F)F)c3ccccc23)cc1` [Example 12, 4-(1-(2-(trifluoromethyl)phenylsulfonyl)-1H-indazol-3-yl)benzoic acid]: the pEC50 is given as 7.17.

`O=C(O)c1ccc(-c2nn(C(=O)c3c(Cl)cccc3Cl)c3ccncc23)cc1` [Example 8, 4-(1-(2,6-dichlorobenzoyl)-1H-pyrazolo[4,3-c]pyridin-3-yl)benzoic acid] had an EC50 of 4.9 µM.

Regarding `O=C(O)c1ccc(-c2nn(C(=O)c3c(Cl)cccc3Cl)c3ccccc23)cc1` [Example 1, 4-(1-(2,6-dichlorobenzoyl)-1H-indazol-3-yl)benzoic acid], the EC50 was 0.0107 µM. Compared with the last compound, the EC50 is about 460-fold lower.

`O=C(O)c1ccc(-c2nn(S(=O)(=O)c3cccc4ccccc34)c3ccccc23)cc1` [Example 15B, 4-(1-(naphthalen-1-ylsulfonyl)-1H-indazol-3-yl)benzoic acid] showed an EC50 of 0.182 µM.

In the case of `Cc1c(Cl)cccc1S(=O)(=O)n1nc(-c2ccc(C(=O)O)cc2)c2ccccc21` [Example 13D, 4-(1-(3-chloro-2-methylphenylsulfonyl)-1H-indazol-3-yl)benzoic acid], the EC50 is 0.0525 µM. This EC50 is about 3.5-fold lower than that of the compound before.

The compound `O=S(=O)(c1sc(Cl)cc1Br)n1nc(-c2ccc(-c3nnn[nH]3)cc2)c2ccccc21` [Example 21C, 3-(4-(1H-tetrazol-5-yl)phenyl)-1-(3-bromo-5-chlorothiophen-2-ylsulfonyl)-1H-indazole] showed an EC50 of 0.617 µM. This EC50 is about 12-fold higher than that of the compound before.

The compound `O=C(O)c1ccc(-c2nn(S(=O)(=O)c3ccc(Cl)c(Cl)c3Cl)c3ccccc23)cc1` [Example 13F, 4-(1-(2,3,4-trichlorophenylsulfonyl)-1H-indazol-3-yl)benzoic acid] showed an EC50 of 0.166 µM.

`O=C(O)c1ccc(-c2nn(C(=O)c3c(Cl)cccc3Cl)c3cc(F)ccc23)cc1` [Example 5, 4-(1-(2,6-dichlorobenzoyl)-6-fluoro-1H-indazol-3-yl)benzoic acid] gave an EC50 of 0.174 µM.

The target of another experiment is T2, HIS-tagged RORγ-LBD (Homo sapiens, UniProt P51449).
T2 construct: HIS-tagged RORγ-LBD was recombinantly expressed in SF9 cells using a baculovirus expression system; made in house; host or cells: SF9 cells, baculovirus; crude lysate used
T2 sequence (P51449 269-508 limits assumed): T1 sequence (P51449 269-508 limits assumed)
Description: TR-FRET assay (Protocol C), purified RORγ-LBD / biotinylated SRC1 LXXLL peptide. Format: biochemical. As to conditions: purified RORγ-LBD 3 nM, SRC1 peptide 100 nM, overnight at 4° C. The text has this: Activation of RORgammaT activity can be measured using e.g. biochemical TR-FRET assay. In such an assay, interaction of cofactor-derived peptides with human RORgammaT-Ligand Binding Domain (LBD) can be measured. The TR-FRET technique is a sensitive biochemical proximity assay that will give information concerning the interaction of a ligand with the LBD, in the presence of cofactor derived peptides (Zhou et al., Methods 25:54-61, 2001).
To identify novel antagonists of RORgammaT, an assay was developed which employs the interaction of RORgammaT with its co-activator peptide SRC1_2. This peptide mimics the recruitment of co-activators to RORgammaT through its interaction with the LXXLL (SEQ ID NO:2) (eg NR box) motifs (Xie et al., J. Immunol. 175: 3800-09, 2005; Kurebayashi et al., Biochem. Biophys. Res. Commun. 315: 919-27, 2004; Jin et al., Mol. Endocrinology 24:923-29, 2010). The assay was run following three slightly different protocols, i.e. Protocol A, Protocol B, and Protocol C, which are described below.
TR-Fret Assay (Protocol C)
HIS-tagged RORγ-LBD protein was expressed in SF9 cells using a baculovirus expression system. The RORγ-LBD protein was purified by glutathione sepharose chromatography. Separately, SF9 cells not expressing any recombinant protein were lysed and the lysate was added to the purified RORγ-LBD at 0.25 μl lysate (from 10,000 SF9 cells)/nM purified protein. The mixture was then diluted in assay buffer (50 mM Tris pH 7.0, 50 mM KCl, 1 mM EDTA, 0.1 mM DTT) to obtain RORγ-LBD final concentration of 3 nM in 384-well assay plate.
Compounds to be tested were injected to the assay plate using Acoustic Droplet Ejection technology by Echo 550 liquid handler (Labcyte, Calif.). A stock of biotinylated-LXXLL (SEQ ID NO:2) peptide from coactivator SRC1 (Biotin-[…]) (SEQ ID NO: 1) was prepared in assay buffer and added to each well (100 nM final concentration). A solution of Europium tagged anti-HIS antibody (1.25 nM final concentration) and APC conjugated streptavidin (8 nM final concentration) were also added to each well.
The final assay mixture was incubated for overnight at 4° C., and the fluorescence signal was measured on an Envision plate reader: (Excitation filter=340 nm; APC emission=665 nm; Europium emission=615 nm; dichroic mirror=D400/D630; delay time=100 μs, integration time=200 μs). IC50 values for test compounds were calculated from the quotient of the fluorescence signal at 665 nm divided by the fluorescence signal at 615 nm.
(Time-resolved FRET reads energy transfer from a long-lived donor to a nearby acceptor.)
The compound `O=C(O)c1cc(F)c(-c2nn(C(=O)c3c(Cl)cccc3C(F)(F)F)c3cccc(F)c23)cc1O` [Example 26F, 4-(1-(2-chloro-6-(trifluoromethyl)benzoyl)-4-fluoro-1H-indazol-3-yl)-5-fluoro-2-hydroxybenzoic acid] showed an IC50 of under 0.05 µM.

In turn, `O=C(O)c1ccc(-c2nn(C(=O)c3c(Cl)cccc3C(F)(F)F)c3cc(C(=O)N4CC(F)C4)ccc23)cc1` [Example 25T, 4-(1-(2-chloro-6-(trifluoromethyl)benzoyl)-6-(3-fluoroazetidine-1-carbonyl)-1H-indazol-3-yl)benzoic acid] gave an IC50 of under 0.05 µM.

`COCc1ccc2c(-c3ccc(C(=O)O)cc3)nn(C(=O)c3c(Cl)cccc3C(F)(F)F)c2c1` [Example 24BG, 4-(1-(2-chloro-6-(trifluoromethyl)-benzoyl)-6-(methoxymethyl)-1H-indazol-3-yl)benzoic acid] displayed an IC50 of 0.05 to 0.5 µM.

With `O=C(O)c1cc(-c2nn(C(=O)c3c(Cl)cccc3C(F)(F)F)c3cccnc23)ccc1O` [Example 24AL, 5-(1-(2-chloro-6-(trifluoromethyl)-benzoyl)-1H-pyrazolo[4,3-b]pyridin-3-yl)-2-hydroxybenzoic acid], the IC50 is over 10 µM.

In turn, `COc1cccc(F)c1C(=O)n1nc(-c2ccc(C(=O)O)cc2F)c2ccccc21` [Example 24AU, sodium 3-fluoro-4-(1-(2-fluoro-6-methoxybenzoyl)-1H-indazol-3-yl)benzoate] gave an IC50 of under 0.05 µM.

As to `O=C(O)c1ccc(-c2nn(C(=O)c3c(Cl)cccc3C(F)(F)F)c3cc(C(=O)N4CC(F)(F)C4)ccc23)cc1` [Example 25U, 4-(1-(2-chloro-6-(trifluoromethyl)benzoyl)-6-(3,3-difluoroazetidine-1-carbonyl)-1H-indazol-3-yl)benzoic acid], the IC50 was under 0.05 µM.

The compound `COc1cccc(F)c1C(=O)n1nc(-c2ccc(C(=O)O)cc2)c2cccc(F)c21` [Example 24AV, 4-(7-fluoro-1-(2-fluoro-6-methoxybenzoyl)-1H-indazol-3-yl)benzoic acid] came in with an IC50 of 0.05 to 0.5 µM.

Take `O=C(O)c1c(F)cc(-c2nn(C(=O)c3c(Cl)cccc3C(F)(F)F)c3cccc(F)c23)c(F)c1O` [Example 26G, 4-(1-(2-chloro-6-(trifluoromethyl)benzoyl)-4-fluoro-1H-indazol-3-yl)-3,6-difluoro-2-hydroxybenzoic acid]: the IC50 is under 0.05 µM.

For the compound `O=C(O)c1ccc(-c2nn(C(=O)c3c(Cl)cccc3C(F)(F)F)c3cc(C(=O)N4CCC4)ccc23)cc1` [Example 25W, 4-(6-(azetidine-1-carbonyl)-1-(2-chloro-6-(trifluoromethyl)benzoyl)-1H-indazol-3-yl)benzoic acid], the IC50 is under 0.05 µM.

Compound `COCCCNC(=O)c1ccc2c(-c3ccc(C(=O)O)cc3F)nn(C(=O)c3c(Cl)cccc3C(F)(F)F)c2c1` [Example 25N, 4-(1-(2-chloro-6-(trifluoromethyl)benzoyl)-6-(3-methoxypropyl-carbamoyl)-1H-indazol-3-yl)-3-fluorobenzoic acid] gave an IC50 of under 0.05 µM.

`O=C(O)c1ccc(-c2nn(C(=O)c3c(Cl)cccc3C(F)(F)F)c3cc(C(=O)N4CCCC4)ccc23)cc1` [Example 25V, 4-(1-(2-chloro-6-(trifluoromethyl)benzoyl)-6-(pyrrolidine-1-carbonyl)-1H-indazol-3-yl)benzoic acid] came in with an IC50 of under 0.05 µM.

`O=C(O)c1ccc(-c2nn(C(=O)c3c(Cl)cccc3C(F)(F)F)c3ccccc23)c(Cl)c1` [Example 24AS, 3-chloro-4-(1-(2-chloro-6-(trifluoromethyl)-benzoyl)-1H-indazol-3-yl)benzoic acid] yielded an IC50 of under 0.05 µM.
